row,Structure (SMILES),melting point
1,O=C1CCNC(C(O)c2ccccc2)C1 (configuration not stated),124 to 126 °C
2,COc1ccc(-n2nc(Cl)cc2-c2ccc(OCCO)cc2)cn1,136 to 138 °C
3,CC(C)(C)c1ccc(/C=N/OCCCOc2ccc(C(=O)O)c(NC(=O)c3ccccc3C(F)(F)F)c2)cc1,121 to 122 °C
4,CN1CCN(c2ccc(/C=C/C(=O)CC(=O)/C=C/c3ccc4cc[nH]c4c3)cc2)CC1,65 to 77 °C
5,S=c1nc(-c2cc(Cl)cc(Cl)c2)[nH]n1Cc1ccccc1,205 to 212 °C
6,NC(=S)c1sc(N2CCCC2)nc1N,264 to 265 °C
7,O=[N+]([O-])c1nccn1C1CCCC1O (configuration not stated),109 °C
8,COc1nc2cc(Cl)ccc2c(=O)c2sccc12,195 to 197 °C
9,CC(C)c1cccc(C(C)C)c1NC(=O)NCC1=CCCc2ccccc21,170 to 171 °C
10,CCOc1ccc(C2=NN(C3CCCC3)C(=O)[C@H]3CCCC[C@@H]23)cc1OCC (relative stereo),111 to 114 °C
11,CCOP(=S)(OCC)OC(=O)/C(=N\OC(C)=O)c1csc(N)n1,128 to 130 °C
12,COC(=O)[C@@H]1C[C@H](O)C(=O)[C@@H]2[C@@]3(C)C[C@@H](c4ccoc4)OC(=O)[C@H]3CC[C@]21C,211 to 214 °C
13,CCCc1nc2c(N)nc3ccccc3c2n1CCCC1(O)CCCCC1,200 to 202 °C
14,Nc1c(-c2ccc(-c3ccccc3F)cc2)nc2ccc(F)cc2c1C(=O)O,248 to 250 °C
15,CCCN(CCC)C(Cc1cccc2[nH]cnc12)C(=O)OCC (configuration not stated),78 to 80 °C
16,Cn1cccc1C(=O)Nc1ccc(-n2nc(C(F)(F)F)cc2C(F)(F)F)cc1,148 to 149 °C
17,CCCN(CCC)Cc1csc(-c2ncn3c2CN(C)C(=O)c2cc(F)ccc2-3)n1,134 to 136 °C
18,COc1ccc(-c2oc(C(=O)O)cc(=O)c2O)cc1,258 to 260 °C
19,O=C(Nc1cc2cn[nH]c2cc1Cl)c1ccccc1NCc1ccncc1,223 °C
20,CSc1ccc(-n2c(-c3ccncc3)nc(SC)c(C#N)c2=O)cc1,227 to 229 °C
21,CC12C=CC(=O)NC1CCc1cc(Cl)ccc12 (configuration not stated),151 to 154 °C
22,O=C(c1nccs1)c1cnn2c(-c3cccc(NC(=O)C4CC4)c3)ccnc12,226 to 229 °C
23,CSc1cnc2cc(-c3ccccc3)sc2c1O,> 325 °C
24,CCOCc1nc2c(N)nc3ccccc3c2n1CCCCCS(=O)(=O)NC,175 to 179 °C
25,CC1(C)CCC(C)(C)c2cc(CC(=O)Oc3ccc(C(=O)O)cc3)ccc21,142 to 143 °C

row,Structure (SMILES),melting point
1,CCOC(=O)C1=C(C)NC(COCCN2C(=O)c3ccccc3C2=O)=C(C(=O)OC)C1c1cccc(Cl)c1Cl (configuration not stated),165 °C
2,CN1C(=O)CCC2=C1CCc1ccc(F)cc12,122 °C
3,O=C(Nc1ccc(C(=O)SCC2C(=O)OCC2c2ccccc2)cc1)OCc1ccccc1 (configuration not stated),160 to 162 °C
4,Cc1nn(-c2cc(OC(C)C(=O)NS(=O)(=O)c3cccc4c3OC(C)(C)C4)c(Cl)cc2F)c(=O)n1C(F)F (configuration not stated),198 to 201 °C
5,CC(=O)COc1ccc([N+](=O)[O-])cc1,77 to 78 °C
6,C=C(CN(Cc1ccccc1)Cc1ccccc1)C(=O)OC(C)(C)C,62 to 63 °C
7,COc1cc(-c2csc(NCCCCCC(=O)Nc3ccc(C(F)(F)F)cc3)n2)cc([N+](=O)[O-])c1O,160 to 162 °C
8,COC(=O)C1=C(C)NC(C)=C(C(=O)OC)C1c1cc([N+](=O)[O-])ccc1OC/C=C/CCl,206 to 207 °C
9,CN(C)c1ccc(-c2nc(Cl)c(CC#N)n2Cc2ccccc2)cc1Cl,142 to 143 °C
10,CCCCS(=O)(=O)NC1Cc2ccc(C(=O)CCC(=O)O)cc2C1 (configuration not stated),138 to 140 °C
11,CCc1ncnc2cc(OC)c(OCC3CO3)cc12 (configuration not stated),120 to 122 °C
12,CC(=O)Nc1ccc(C(C)=C(Cl)Cl)cc1,164 to 166 °C
13,CN(C)C=NS(=O)(=O)c1cc(Br)cc(Br)c1,157 to 158 °C
14,CC(C)NC1=NS(=O)(=O)c2ccc(S(=O)(=O)c3ccccc3)cc2N1,178 to 180 °C
15,CCc1nn(CC)c(C(N)=O)c1Cc1ccc2oc(-c3ccccc3C(=O)O)c(Br)c2c1,171 to 172 °C
16,BrCc1ccc(-c2ccc3c(c2)OCO3)cc1,78 to 81 °C
17,O=c1[nH]nc(-c2cc(C(F)(F)F)cc(C(F)(F)F)c2)n1-c1cc(Cl)ccc1O,275 to 278 °C
18,OC(CCN1CC=C(c2ccc(Cl)cc2)CC1)c1cccc2ccccc12 (configuration not stated),122 to 123 °C
19,CCN(CC)C(C)CN1CCc2c(c(=O)oc3c(OC)c(OC)ccc23)C1 (configuration not stated),99 to 100 °C
20,C=C(c1ccc(Br)cc1)c1ccc(N(C)C)cc1,126 to 127 °C
21,Nc1ccc(Oc2ccc(S(=O)(=O)c3ccc(Oc4ccc(N)c(O)c4)cc3)cc2)cc1O,228 to 231 °C
22,CCOCCn1cc2c(C3C(=O)Nc4ccc(Cl)cc43)nc(NCc3ccncc3)nc2n1 (configuration not stated),298 to 299 °C
23,Cc1cc(Cl)ccc1-c1c(O)c(C)c(-c2ccccn2)oc1=O,133 to 135 °C
24,CCN(CC)C(=O)c1nc(-c2ccccc2)nc2ccccc12,127 °C
25,CCOC(=O)c1cnc2c(c(C)nc3ccnn32)c1O,190 to 192 °C

row,Structure (SMILES),melting point
1,CN1CN(c2ccccc2)C2(CCN(CCCC(=O)c3ccc(F)cc3I)CC2)C1=O,115 to 118 °C
2,COc1cc(OC)nc(NC(=O)NS(=O)(=O)C(C)c2ccccc2[N+](=O)[O-])n1 (configuration not stated),168 to 170 °C
3,Cn1c(=O)c2c(ncn2CC(O)CN2CCN(C(=O)c3ccco3)CC2)n(C)c1=O (configuration not stated),100 °C
4,O=C(Nc1ccc2nc(CN3CCOCC3)ccc2c1)c1ccc(-c2ccc(Cl)cc2)cc1,236 to 238 °C
5,N#Cc1cnc2n(c1=O)CCC2,119 to 121 °C
6,COc1cccc(C=O)c1OCc1ccccc1,41 to 43 °C
7,CCc1onc(-c2ccccc2)c1-c1ccccc1,85 to 87 °C
8,O=C(O)c1ccc(Oc2ccccc2Oc2ccc(C(=O)O)cc2)cc1,255 to 257 °C
9,C=C(CS(=O)CCCC)c1ccccc1 (configuration not stated),42 to 43.5 °C
10,CCNc1nc(N2CCN(Cc3ccccc3)CC2)ncc1C(=O)O,158 to 160 °C
11,CCCn1nc(Cc2ccc(-c3ccccc3-c3nnn(C(c4ccccc4)(c4ccccc4)c4ccccc4)n3)cc2)c(C(=O)OCC)c1C(C)C,158 to 159 °C
12,O=C(CNc1ccc2[nH]ncc2c1)N1CCC(Cc2ccccc2)CC1,42 to 47 °C
13,CCOC(=O)C(C#N)Cc1cc(OC)c(OC)cc1C (configuration not stated),39 to 40 °C
14,CC1(C)C(=CC=C2C(=O)c3ccccc3C2=C(C#N)C#N)N2CCc3cccc1c32,277 °C
15,O=C(Cc1ccc(O)c([N+](=O)[O-])c1)N[C@H]1C[C@H](C(=O)O)Nc2cc(Cl)cc(Cl)c21 (relative stereo),245 to 247 °C
16,O=C(c1ccc(F)cc1)N1CCC[C@H](c2nc(-c3cscn3)no2)C1,118 to 120 °C
17,Nc1cccc(-c2nc3sccn3c2-c2ccnc(N[C@@H]3CCCN(S(=O)(=O)c4ccc(Cl)cc4)C3)n2)c1,226 to 228 °C
18,CCCCn1c(CCCCN(C(N)=O)c2ccccc2)nc2c(N)nc3ccccc3c21,222 to 225 °C
19,Cc1nnc(-c2ccc3occ(-c4ccc(O)cc4)c3c2)o1,226 to 227 °C
20,Cc1ccc(C(=O)NC(NC(=NC#N)Nc2ccccc2F)C(Cl)(Cl)Cl)cc1 (configuration not stated),220 to 222 °C
21,Cc1ccc(C(=O)Nc2cccc(C(F)(F)F)c2)cc1/C=C/n1cnc2c(NC3CC3)ncnc21,201 °C
22,Clc1cccc(-c2nc3ccccc3n2-c2ccccc2)c1,107 to 109 °C
23,Cn1c(CCOc2ccc(CC3SC(=O)NC3=O)cc2)nc2cccnc21 (configuration not stated),96 to 100 °C
24,O=S1CCN(c2nc(N3CCNCC3)cc3c(Cl)cccc23)CC1,215 to 217 °C
25,CCCn1nc2c(N)nc3c(c2c1CC(C)C)CCCC3,167 to 168 °C

row,Structure (SMILES),melting point
1,Cn1cncc1C(CC#N)(c1ccc(Cl)cc1)c1ccc2c(c1)c(-c1cccc(Cl)c1)cc(=O)n2C (configuration not stated),151 °C
2,CCCCc1ccc(C(=O)CCCn2ccnc2)cc1,125 to 128 °C
3,Cc1nc(-c2cc(Cl)ccc2Cl)n2c1nnc1ccc(N3CCCCC3)cc12,158 to 160 °C
4,O=C(Nc1c(Cl)cccc1Cl)N(Cc1ccccc1)CC1(c2ccccc2)CCCC1,125 to 127 °C
5,O=C1C(=O)c2ccc(Cl)cc2C2=C1SCC1(CCN(CC(O)Cc3ccccc3)CC1)O2 (configuration not stated),92 to 96 °C
6,C=CCOC1=NC(OCC)=NS(=O)(=O)N1C,56 to 60 °C
7,CC1(C)SC2C(NC(=O)CNC(=O)c3ccccc3)C(=O)N2C1c1nnn[nH]1 (configuration not stated),85 to 93 °C
8,CN1CCOc2cc3c(cc21)OCC31C(=O)N(CC2CCCO2)c2ccccc21 (configuration not stated),138 to 140 °C
9,NC1=CC([N+](=O)[O-])C(N)(CC(F)(F)F)C=C1 (configuration not stated),104 to 106 °C
10,COc1ccc(C(=O)C2CCC(C)(C(=O)O)C2(C)C)cc1 (configuration not stated),165 to 166 °C
11,COc1ccc(C2Sc3ccccc3N(CCN(C)C)C(=O)C2OC(=O)c2cccc([N+](=O)[O-])c2)cc1 (configuration not stated),178 to 180 °C
12,COC(=O)C=C(Nc1ccc2[nH]c(=O)oc2c1)C(=O)OC,172 °C
13,O=C1C(=O)N(CCCCN2CCN(C(c3ccccc3)c3ccccc3)CC2)c2ccc(F)cc21,144 °C
14,CC(c1oc2ccccc2c(=O)c1-c1cccc(F)c1)n1nc(-c2cccc(OC(F)(F)F)c2)c2c(N)ncnc21 (configuration not stated),155 to 157 °C
15,Cc1cccc(NS(=O)(=O)c2ccc(N3CCNC3=O)cc2)c1,188 to 190 °C
16,CCOC(=O)C(=CNc1ccc(F)cc1F)C(=O)c1c(F)cc(Cl)c(F)c1Cl,84 to 86 °C
17,CCCc1c2c(cc3c(=O)cc(C(=O)OCC)oc13)CCCC2,98 to 99.5 °C
18,COc1cccc(Cn2nc3oc(=O)cc(C)c3c2C)c1,148 to 151 °C
19,C[Si](C)(C)Oc1ccc(SSc2ccc(O[Si](C)(C)C)cc2)cc1,21 to 22 °C
20,CC(=O)C1=C(O)c2ccc3ccccc3c2S(=O)(=O)N1,191 to 192 °C
21,C[C@@H](n1nccn1)[C@](O)(Cn1cncn1)c1ccc(F)cc1F,92 to 95 °C
22,CCOC(=O)c1cc(=O)c2c(OCCOc3ccc4c(c3)OCO4)cccc2o1,161 to 162 °C

# — a melting point compilation (Tetko et al.; mined from patent text by program, amines drawn as free bases though some values may be those of a salt)
